ChEMBL document CHEMBL1159193, “Synthesis and in vitro anti-human immunodeficiency virus activity of artemisinin (qinghaosu)-related trioxanes” (Bioorg Med Chem Lett, 1994)

How the values were obtained:
[1] = In vitro anti-HIV activity in human peripheral blood mononuclear (PBM) cells acutely infected with HIV-1 LAI; assay type: functional
[2] = In vitro cytotoxicity assessed by measuring [3H]-thymidine uptake in human peripheral blood mononuclear (PBM) cells; assay type: functional

Row | SMILES | EC50 [1] | IC50 [2]
1 | CCO[C@H]1O[C@@H]2O[C@@]3(C)CC[C@H]4[C@H](C)CC[C@@H]([C@H]1C)[C@@]24OO3 [ARTEMOTIL] | 41.2 µM | 30.9 µM
2 | CCCC[C@H]1O[C@@H]2O[C@]3(C)CC[C@H]4[C@H](C)CC[C@@H]([C@H]1C)[C@@]24OO3 | 4.7 µM | 1.3 µM
3 | COC(=O)c1ccc([C@H]2OOC3(CCC[C@@H](C)C3)[C@@H](OC)O2)cc1 (some centres undefined) | > 100 µM | > 100 µM
4 | C[C@@H]1CC[C@H]2[C@@H](C)C(=O)O[C@@H]3O[C@@]4(C)CC[C@@H]1[C@]32OO4 [ARTEMISININ] | > 100 µM | > 100 µM
5 | C[C@@H]1CC[C@H]2[C@@H](C)CO[C@@H]3O[C@]4(C)CC[C@@H]1[C@]32OO4 [DEOXOARTEMISININ] | > 100 µM | > 100 µM
6 | Cc1cn([C@H]2C[C@H](N=[N+]=[N-])[C@@H](CO)O2)c(=O)[nH]c1=O [ZIDOVUDINE] | 0.004 µM | > 100 µM
7 | C[C@@H]1CC[C@H]2[C@@H](C)CCO[C@@H]3O[C@]4(C)CC[C@@H]1[C@]32OO4 | 50.2 µM | > 100 µM
